From ChEMBL document CHEMBL1158687, “A dihydroflavonol glucoside from Commiphora africana that mediates DNA strand scission” (J Nat Prod, 2005)
The source made the active and inactive calls. The calls are words filed in the database; no cut-off is given here.

Experiments:
Escherichia coli [1] = assay: Induction of strand scission in pBR322 DNA in presence of copper
Escherichia coli [2] = assay: Induction of strand scission in pBR322 DNA assessed as conversion from supercoiled form to nicked circular form at 50 uM in presence of copper
Escherichia coli [3] = assay: Induction of strand scission in pBR322 DNA assessed as formation of linear duplex and nicked form at 100 uM in presence of copper
Escherichia coli [4] = assay: Induction of strand scission in pBR322 DNA in presence of ferrous ion

Activity (Escherichia coli [1]): Dose-dependent effect | Activity (Escherichia coli [2]): 62% | Activity (Escherichia coli [3]): Active | Activity (Escherichia coli [4]): inactive
Compound: CC(C)=CCc1c(O[C@@H]2O[C@H](CO)[C@@H](O)[C@H](O)[C@H]2O)cc(O)c2c1O[C@H](c1ccc(O)cc1)[C@@H](O)C2=O
